Here are results for ten compounds from ChEMBL document CHEMBL3046446, “Structure and Acaricidal Activity of Pyrazolecarboxamides and Thiazole-5-carboxamides” (1994).

SMILES strings stand for the structures.

For the first assay, the system named is Tetranychus urticae. In words: Acaricidal activity against Tetranychus urticae (two-spotted spider mite) in kidney bean leaf assessed as mortality at 200 ppm at 25 degC measured after 5 days. Format: functional. Conditions: 120 h.
Turning to `CCc1cc(C(=O)NCc2ccc(C(C)(C)C)cc2)nn1C`, the mortality – broadly, the share of the test organisms that died – at 200 ppm was determined as 0%.
For the compound `CCc1cc(C(=O)NCc2ccc(C(C)(C)C)cc2)n(C)n1`, the mortality at 200 ppm was 100%.
The same measure, in the same setting: the same measure for `CCc1nc(C)c(C(=O)N(C)Cc2ccc(C(C)(C)C)cc2)s1`: 100%; for `CCn1ncc(C(=O)NCc2ccc(C(C)(C)C)cc2)c1C`: 0%; for `CCn1nc(C)cc1C(=O)NCc1ccc(C(C)(C)C)cc1`: 0%.
As to `Cc1ncsc1C(=O)NCc1ccc(C(C)(C)C)cc1`, the mortality at 200 ppm was found to be 0%.
With `Cc1nn(C)cc1C(=O)NCc1ccc(C(C)(C)C)cc1`, the mortality at 200 ppm was determined as 80%.
As to `CCn1cc(C(=O)NCc2ccc(C(C)(C)C)cc2)c(C)n1`, the mortality at 200 ppm amounted to 100%.
Turning to `Cc1nc(C)c(C(=O)NCc2ccc(C(C)(C)C)cc2)s1`, the mortality at 200 ppm was determined as 100%.
On the same count and under the same terms, the same measure for `Cc1cc(C(=O)NCc2ccc(C(C)(C)C)cc2)n(C)n1`: 100%.

In another assay the test system is Tetranychus urticae. Description: Acaricidal activity against Tetranychus urticae (two-spotted spider mite) in kidney bean leaf assessed as mortality at 50 ppm at 25 degC measured after 5 days. Conditions: 120 h. Format: functional.
For `CCc1cc(C(=O)NCc2ccc(C(C)(C)C)cc2)nn1C`, the mortality at 50 ppm amounted to 0%.
As to `CCc1cc(C(=O)NCc2ccc(C(C)(C)C)cc2)n(C)n1`, the mortality at 50 ppm turned out to be 100%.
As to `CCc1nc(C)c(C(=O)N(C)Cc2ccc(C(C)(C)C)cc2)s1`, the mortality at 50 ppm was 100%.
For `CCn1ncc(C(=O)NCc2ccc(C(C)(C)C)cc2)c1C`, the mortality at 50 ppm was 0%.
`CCn1nc(C)cc1C(=O)NCc1ccc(C(C)(C)C)cc1`: the mortality at 50 ppm was 0%.
Consider `Cc1ncsc1C(=O)NCc1ccc(C(C)(C)C)cc1`, for which the mortality at 50 ppm turned out to be 0%.
For the compound `Cc1nn(C)cc1C(=O)NCc1ccc(C(C)(C)C)cc1`, the mortality at 50 ppm was 0%.
Same read-out and setting: the same measure for `CCn1cc(C(=O)NCc2ccc(C(C)(C)C)cc2)c(C)n1`: 100%; for `Cc1nc(C)c(C(=O)NCc2ccc(C(C)(C)C)cc2)s1`: 100%.
Take `Cc1cc(C(=O)NCc2ccc(C(C)(C)C)cc2)n(C)n1`: the mortality at 50 ppm amounted to 100%.

For another assay, the system named is Tetranychus urticae. Description: Acaricidal activity against Tetranychus urticae (two-spotted spider mite) in kidney bean leaf assessed as mortality at 500 ppm at 25 degC measured after 5 days. Format: functional. Conditions: 120 h.
In the case of `CCc1cc(C(=O)NCc2ccc(C(C)(C)C)cc2)nn1C`, the mortality at 500 ppm stood at 0%.
Turning to `CCc1cc(C(=O)NCc2ccc(C(C)(C)C)cc2)n(C)n1`, the mortality at 500 ppm is 100%.
Same read-out and setting: under `CCc1nc(C)c(C(=O)N(C)Cc2ccc(C(C)(C)C)cc2)s1` stands 100%; under `CCn1ncc(C(=O)NCc2ccc(C(C)(C)C)cc2)c1C`, 0%; under `CCn1nc(C)cc1C(=O)NCc1ccc(C(C)(C)C)cc1`, 0%.
Consider `Cc1ncsc1C(=O)NCc1ccc(C(C)(C)C)cc1`, for which the mortality at 500 ppm amounted to 30%.
`Cc1nn(C)cc1C(=O)NCc1ccc(C(C)(C)C)cc1`: the mortality at 500 ppm was found to be 100%.
Take `CCn1cc(C(=O)NCc2ccc(C(C)(C)C)cc2)c(C)n1`: the mortality at 500 ppm was 100%.
Consider `Cc1nc(C)c(C(=O)NCc2ccc(C(C)(C)C)cc2)s1`, for which the mortality at 500 ppm is 100%.
Same read-out and setting: under `Cc1cc(C(=O)NCc2ccc(C(C)(C)C)cc2)n(C)n1` stands 100%.

The test system of another assay is Tetranychus urticae. Description: Acaricidal activity against Tetranychus urticae (two-spotted spider mite) in kidney bean leaf assessed as mortality at 12.5 ppm at 25 degC measured after 5 days. Conditions: 120 h. The format is functional.
In the case of `CCc1cc(C(=O)NCc2ccc(C(C)(C)C)cc2)nn1C`, the mortality at 12.5 ppm was found to be 0%.
Turning to `CCc1cc(C(=O)NCc2ccc(C(C)(C)C)cc2)n(C)n1`, the mortality at 12.5 ppm is 100%.
Take `CCc1nc(C)c(C(=O)N(C)Cc2ccc(C(C)(C)C)cc2)s1`: the mortality at 12.5 ppm was found to be 30%.
Regarding `CCn1ncc(C(=O)NCc2ccc(C(C)(C)C)cc2)c1C`, the mortality at 12.5 ppm stood at 0%.
For `CCn1nc(C)cc1C(=O)NCc1ccc(C(C)(C)C)cc1`, the mortality at 12.5 ppm amounted to 0%.
Turning to `Cc1ncsc1C(=O)NCc1ccc(C(C)(C)C)cc1`, the mortality at 12.5 ppm was 0%.
As for `Cc1nn(C)cc1C(=O)NCc1ccc(C(C)(C)C)cc1`, the mortality at 12.5 ppm is 0%.
On to `CCn1cc(C(=O)NCc2ccc(C(C)(C)C)cc2)c(C)n1`, for which the mortality at 12.5 ppm worked out at 30%.
With `Cc1nc(C)c(C(=O)NCc2ccc(C(C)(C)C)cc2)s1`, the mortality at 12.5 ppm is 0%.
For `Cc1cc(C(=O)NCc2ccc(C(C)(C)C)cc2)n(C)n1`, the mortality at 12.5 ppm came to 30%.

A further assay deals with Tetranychus urticae. Description: Acaricidal activity against Tetranychus urticae (two-spotted spider mite) in kidney bean leaf assessed as mortality at 3.1 ppm at 25 degC measured after 5 days. Format: functional. Conditions: 120 h.
On to `CCc1cc(C(=O)NCc2ccc(C(C)(C)C)cc2)nn1C`, for which the mortality at 3.1 ppm is 0%.
As for `CCc1cc(C(=O)NCc2ccc(C(C)(C)C)cc2)n(C)n1`, the mortality at 3.1 ppm was found to be 0%.
With `CCc1nc(C)c(C(=O)N(C)Cc2ccc(C(C)(C)C)cc2)s1`, the mortality at 3.1 ppm stood at 0%.
As to `CCn1ncc(C(=O)NCc2ccc(C(C)(C)C)cc2)c1C`, the mortality at 3.1 ppm stood at 0%.
The same measure, in the same setting: under `CCn1nc(C)cc1C(=O)NCc1ccc(C(C)(C)C)cc1` stands 0%.
Take `Cc1ncsc1C(=O)NCc1ccc(C(C)(C)C)cc1`: the mortality at 3.1 ppm amounted to 0%.
The same measure, in the same setting: the same measure for `Cc1nn(C)cc1C(=O)NCc1ccc(C(C)(C)C)cc1`: 0%; for `CCn1cc(C(=O)NCc2ccc(C(C)(C)C)cc2)c(C)n1`: 0%.
Still for that read-out and setting: the same measure for `Cc1nc(C)c(C(=O)NCc2ccc(C(C)(C)C)cc2)s1`: 0%; for `Cc1cc(C(=O)NCc2ccc(C(C)(C)C)cc2)n(C)n1`: 0%.
